# From US10844049B2, “GLP-1R agonists and uses thereof” (QILU REGOR THERAPEUTICS INC., priority 2018, dated 2020)
# Target: GLP1R (Homo sapiens, UniProt P43220)
# Assay: GLP1R cAMP HTRF assay, HEK293/GLP-1R/CRE/Luc (HEK293T cells)
# Type: cell-based
# Settings: read-out: EC50
# Outline: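 cAMP accumulation via HTRF after 30 min, 37 °C exposure of 1000 receptor-expressing cells/well to compound (0.5% DMSO final) in IBMX (500 μM)/0.1% BSA DPBS.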
# Chain of GLP1R (P43220 24-463): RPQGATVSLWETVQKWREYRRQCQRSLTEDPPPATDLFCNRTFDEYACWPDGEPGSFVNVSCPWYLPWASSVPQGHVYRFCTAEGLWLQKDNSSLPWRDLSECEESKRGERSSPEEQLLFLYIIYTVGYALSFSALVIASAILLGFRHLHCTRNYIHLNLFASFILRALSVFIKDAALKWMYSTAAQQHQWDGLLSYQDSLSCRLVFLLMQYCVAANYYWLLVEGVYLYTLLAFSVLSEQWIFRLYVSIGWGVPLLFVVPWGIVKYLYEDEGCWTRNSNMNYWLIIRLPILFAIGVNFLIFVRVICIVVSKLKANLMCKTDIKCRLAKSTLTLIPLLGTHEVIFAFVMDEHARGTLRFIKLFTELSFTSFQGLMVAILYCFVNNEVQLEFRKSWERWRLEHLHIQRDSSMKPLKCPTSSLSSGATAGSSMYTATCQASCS
row,Compound,EC50 [nM]
1,"O=C(O)c1ccc2nc(CN3CC=C(c4cccc(OC5CCOc6cc(Cl)ccc65)n4)CC3)n(C[C@@H]3CCO3)c2c1 (stereo partly drawn) [Compound 69, 2-((6-((7-chlorochroman-4-yl)oxy)-5′,6′-dihydro-[2,4′-bipyridin]-1′(2′H)-yl)methyl)-1-((S)-oxetan-2-ylmethyl)-1H-benzo[d]imidazole-6-carboxylic add]",≤ 1000
2,"N#Cc1ccc2nc(CN3CC=C(c4cccc(OCc5ccc(Cl)cc5F)n4)CC3)n(C[C@@H]3CCO3)c2c1 [Compound 71, (S)-2-((4-(6-(4-chloro-2-fluorobenzyloxy)pyridin-2-yl)-5,6-dihydropyridin-1(2H)-yl)methyl)-1-(oxetan-2-ylmethyl)-1H-benzo[d]imidazole-6-carbonitrile]",> 1000
3,"O=C(O)c1ccc2nc(CN3CC=C(c4cccc(OCc5ccccc5)n4)CC3)n(C[C@@H]3CCO3)c2c1 [Compound 73, (S)-2-((6-(benzyloxy)-5′,6′-dihydro-[2,4′-bipyridin]-1′(2′H)-yl)methyl)-1-(oxetan-2-ylmethyl)-1H-benzo[d]imidazole-6-carboxylic add]",≤ 150
4,"O=C(O)c1ccc2nc(CN3CC=C(c4cc5cn[nH]c5c(OCc5ccc(Cl)cc5F)n4)CC3)n(C[C@@H]3CCO3)c2c1 [Compound 103, (S)-2-((4-(7-((4-chloro-2-fluorobenzyl)oxy)-1H-pyrazolo[3H-c]pyridin-5-yl)-3,6-dihydropyridin-1(2H)-yl)methyl)-1-(oxetan-2-ylmethyl)-1H-benzo[d]imidazole-6-carboxylic add]",≤ 150
5,"O=C(O)c1ccc2nc(CN3CC=C(c4cccc(NC5CCCc6cc(Cl)ccc65)n4)CC3)n(C[C@@H]3CCO3)c2c1 (stereo partly drawn) [Compound 104, 2-((6-((6-chloro-1,2,3,4-tetrahydronaphthalen-1-yl)amino)-36′-dihydro-[2,4′-bipyridin]-1′(2′H)-yl)methyl)-1-(((S)-oxetan-2-yl)methyl)-1H-benzo[d]imidazole-6-carboxylic add]",≤ 1000
6,O=C(O)c1ccc2nc(CN3CC=C(c4cc(-c5ccccc5)cc(OCc5ccc(Cl)cc5F)n4)CC3)n(C[C@@H]3CCO3)c2c1 [Compound 109],≤ 1000
7,"CC(c1ncco1)n1c(CN2CC=C(c3cccc(OCc4ccc(Cl)cc4F)n3)CC2)nc2ccc(C(=O)O)cc21 (centres unmarked) [Compound 112, 2-((6-((4-chloro-2-fluorobenzyl)oxy)-3′,6′-dihydro-[2,4′-bipyridin]-1′(2′H)-yl)methyl)-1-(1-(oxazol-2-yl)ethyl)-1H-benzo[d]imidazole-6-carboxylic acid]",≤ 1000
8,"O=C(O)c1ccc2nc(CN3CC=C(c4cccc(CCc5ccc(Cl)cc5F)n4)CC3)n(C[C@@H]3CCO3)c2c1 [Compound 113, (S)-2-((6-(4-chloro-2-fluorophenethyl)-3′,6′-dihydro-[2,4′-bipyridin]-1′(2′H)-yl)methyl)-1-(oxetan-2-ylmethyl)-1H-benzo[d]imidazole-6-carboxylic acid]",≤ 150
9,"O=C(O)c1ccc2nc(CN3CC=C(c4cccc(OCc5ccc(Cl)c(Cl)c5)n4)CC3)n(C[C@@H]3CCO3)c2c1 [Compound 115, (S)-2-((6-((3,4-dichlorobenzyl)oxy)-3′,6′-dihydro[2,4′-bipyridin]-1′(2′H)-yl)methyl)-1-(oxetan-2-ylmethyl)-1H-benzo[d]imidazole-6-carboxylic add]",≤ 15
10,"O=C(O)c1ccc2nc(CN3CC=C(c4cccc(OCc5ccc(Cl)cn5)n4)CC3)n(C[C@@H]3CCO3)c2c1 [Compound 116, (S)-2-((6-((5-chloropyridin-2-yl)methoxy)-3′,6′-dihydro-[2H′-bipyridin]-1′(2′H)-yl)methyl)-1-(oxetan-2-ylmethyl)-1H-benzo[d]imidazole-6-carboxylic add]",≤ 15
11,"COc1ccc(COc2cccc(C3=CCN(Cc4nc5ccc(C(=O)O)cc5n4C[C@@H]4CCO4)CC3)n2)nc1 [Compound 117, (S)-2-((6-((5-methoxypyridin-2-yl)methoxy)-3′,6′-dihydro-[2,4′-bipyridin]-1′(2′H)-yl)methyl)-1-(oxetan-2-ylmethyl)-1H-benzo[d]imidazole-6-carboxylic add]",≤ 15

# The remaining lines, values ahead:
row,EC50 [nM],Compound
1,≤ 15,"C#Cc1ccc(COc2cccc(C3=CCN(Cc4nc5ccc(C(=O)O)cc5n4C[C@@H]4CCO4)CC3)n2)c(F)c1 [Compound 68, (S)-2-((6-((4-ethynyl-2-fluorobenzyl)oxy)-3‘f’-dihydro-[2,4′-bipyridin]-1′(2′H)-yl)methyl)-1-(oxetan-2-ylmethyl)-1H-benzo[d]imidazole-6-carboxylic acid]"
2,≤ 15,CC(Oc1cccc(C2=CCN(Cc3nc4ccc(C(=O)O)cc4n3C[C@@H]3CCO3)CC2)n1)c1ccc(Cl)cc1F (some centres unmarked) [Compound 70]
3,≤ 15,"O=C(O)c1ccc2nc(CN3CC=C(c4cccc(OCc5ccc(Cl)cc5F)n4)CC3)n(Cc3ncco3)c2c1 [Compound 72, 2-((6-((4-chloro-2-fluorobenzyl)oxy)-3′,6′-dihydro-[2,4′-bipyridin]-1′(2′H)-yl)methyl)-1-(oxazol-2-ylmethyl)-1H-benzo[d]imidazole-6-carboxyli acid]"
4,≤ 15,"O=C(O)c1ccc2nc(CN3CCN(c4cccc(OCc5ccc(Cl)cc5F)n4)CC3=O)n(C[C@@H]3CCO3)c2c1 [Compound 106, (S)-2-((4-(6-((4-chloro-2-fluorobenzyl)oxy)pyridin-2-yl)-2-oxopiperazin-1-yl)methyl)-1-(oxetan-2-ylmethyl)-1H-benzo[d]imidazole-6-carboxylic add]"
5,≤ 15,"CC#Cc1ccc(COc2cccc(C3=CCN(Cc4nc5ccc(C(=O)O)cc5n4C[C@@H]4CCO4)CC3)n2)c(F)c1 [Compound 107, (S)-2-((6-((2-fluoro-4-(prop-1-yn-1-yl)benzyl)oxy)-3′,6′-dihydro-[2,4′-pyridin]-1′(2′H)-yl)methyl)-1-(oxetan-2-ylmethyl)-1H-benzo[d]imidazole-6-carboxylic acid]"
6,≤ 15,"O=C(O)c1ccc2nc(CN3CC=C(c4cccc(OCc5ccc(C#CC6CC6)cc5F)n4)CC3)n(C[C@@H]3CCO3)c2c1 [Compound 108, (S)-2-((6-((4-(cyclopropylethynyl)-2-fluorobenzyl)oxy)-3′,6′-dihydro-[2,4′-bipyridin]-1′(2′H)-yl)methyl)-1-(oxetan-2-ylmethyl)-1H-benzo[d]imidazole-6-carboxylic acid]"
7,≤ 15,"Cc1c(C(=O)O)ccc2nc(CN3CC=C(c4cccc(OCc5ccc(Cl)cc5)n4)CC3)n(C[C@@H]3CCO3)c12 [Compound 110, (S)-2-((6-((4-chlorobenzyl)oxy)-3′,6′-dihydro-[2,4′-bipyridin]-1′(2′H)-yl)methyl)-7-methyl-1-(oxetan-2-ylmethyl)-1H-benzo[d]imidazole-6-carboxylic add]"
8,≤ 15,"Cc1cc2nc(CN3CC=C(c4cccc(OCc5ccc(Cl)cc5)n4)CC3)n(C[C@@H]3CCO3)c2cc1C(=O)O [Compound 111, (S)-2-((4-(6-(4-chlorobenzyloxy)pyridin-2-yl)-5,6-dihydropyridin-1(2H)-yl)methyl)-5-methyl-1-(oxetan-2-ylmethyl)-1H-benzo[d]imidazole-6-carboxylic acid]"
9,≤ 15,"O=C(O)c1ccc2nc(CN3CC=C(c4cccc(OCc5ccc(Cl)cc5Cl)n4)CC3)n(C[C@@H]3CCO3)c2c1 [Compound 114, (S)-2-((6-((2,4-dichlorobenzyl)oxy)-3′,6′-dihydro-[2,4′-bipyridin]-1′(2′H)-yl)methyl)-1-(oxetan-2-ylmethyl)-1H-benzo[d]imidazole-6-carboxylic add]"
